Assay results: the supplement of paper PMC11061612

Key:
[1] = tested on: SW1710 (Bladder Carcinoma); assay: Bliss excess, mean over the matrix (fraction); higher = more synergy
Procedure, shortened: (§1)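 Cell lines grown in DMEM/F12 or RPMI with 10% FBS were plated in 1536-well plates and held 24 hours at 37°C, 5% CO2 before 72 hours of exposure to two-drug dose matrices, with DMSO typically at 0.2%. CellTiter-Glo 2.0 luminescence gave viability, which was converted to inhibition. Vehicle wells were set to 0 and blank wells to 1. Combination Emax is the second-highest inhibition in the matrix, and Bliss excess is the observed combination effect minus the expected EA + EB − EA·EB, where EA and EB are the single-agent effects.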

[2] = tested on: LNZTA3WT4 (Low Grade Glioma); assay: as above
Procedure, shortened: as §1

[3] = tested on: WSU-NHL (B-Cell Non-Hodgkin's Lymphoma); assay: as above
Procedure, shortened: as §1

[4] = tested on: TGBC1TKB (Biliary Tract Carcinoma); assay: as above
Procedure, shortened: as §1

MPP-89 (Mesothelioma) [5] = assay: as above
Procedure, shortened: as §1

[6] = tested on: HH (T-Cell Non-Hodgkin's Lymphoma); assay: as above
Procedure, shortened: as §1

[7] = tested on: HuCCT1 (Biliary Tract Carcinoma); assay: as above
Procedure, shortened: as §1

CAL-72 (Osteosarcoma) [8] = assay: as above
Procedure, shortened: as §1

[9] = tested on: BE-13 (T-Lymphoblastic Leukemia); assay: as above
Procedure, shortened: as §1

[10] = tested on: SNU-449 (Hepatocellular Carcinoma); assay: as above
Procedure, shortened: as §1

[11] = tested on: ESS-1 (Other Solid Carcinomas); assay: as above
Procedure, shortened: as §1

[12] = tested on: KYAE-1 (Esophageal Adenocarcinoma); assay: as above
Procedure, shortened: as §1

LOXIMVI (Melanoma) [13] = assay: as above
Procedure, shortened: as §1

GAMG (Glioblastoma) [14] = assay: as above
Procedure, shortened: as §1

A673 (Ewing's Sarcoma) [15] = assay: as above
Procedure, shortened: as §1

EW-11 (Ewing's Sarcoma) [16] = assay: as above
Procedure, shortened: as §1

[17] = tested on: YAPC (Pancreatic Carcinoma); assay: as above
Procedure, shortened: as §1

KS-1 (Glioblastoma) [18] = assay: as above
Procedure, shortened: as §1

[19] = tested on: LS-123 (Colorectal Carcinoma); assay: as above
Procedure, shortened: as §1

[20] = tested on: NCI-H524 (Small Cell Lung Carcinoma); assay: as above
Procedure, shortened: as §1

[21] = tested on: SAS (Oral Cavity Carcinoma); assay: as above
Procedure, shortened: as §1

[22] = tested on: OVCAR-5 (Ovarian Carcinoma); assay: as above
Procedure, shortened: as §1

[23] = tested on: SNU-16 (Gastric Carcinoma); assay: as above
Procedure, shortened: as §1

[24] = tested on: SW1710 (Bladder Carcinoma); assay: combination Emax (second highest fraction inhibited in the dose matrix, 72 h); higher = more inhibition; extreme values may be limits of the assay
Procedure, shortened: as §1

[25] = tested on: LNZTA3WT4 (Low Grade Glioma); assay: as above
Procedure, shortened: as §1

[26] = tested on: WSU-NHL (B-Cell Non-Hodgkin's Lymphoma); assay: as above
Procedure, shortened: as §1

[27] = tested on: TGBC1TKB (Biliary Tract Carcinoma); assay: as above
Procedure, shortened: as §1

MPP-89 (Mesothelioma) [28] = assay: as above
Procedure, shortened: as §1

[29] = tested on: HH (T-Cell Non-Hodgkin's Lymphoma); assay: as above
Procedure, shortened: as §1

[30] = tested on: HuCCT1 (Biliary Tract Carcinoma); assay: as above
Procedure, shortened: as §1

CAL-72 (Osteosarcoma) [31] = assay: as above
Procedure, shortened: as §1

[32] = tested on: BE-13 (T-Lymphoblastic Leukemia); assay: as above
Procedure, shortened: as §1

[33] = tested on: SNU-449 (Hepatocellular Carcinoma); assay: as above
Procedure, shortened: as §1

[34] = tested on: ESS-1 (Other Solid Carcinomas); assay: as above
Procedure, shortened: as §1

[35] = tested on: KYAE-1 (Esophageal Adenocarcinoma); assay: as above
Procedure, shortened: as §1

LOXIMVI (Melanoma) [36] = assay: as above
Procedure, shortened: as §1

GAMG (Glioblastoma) [37] = assay: as above
Procedure, shortened: as §1

A673 (Ewing's Sarcoma) [38] = assay: as above
Procedure, shortened: as §1

EW-11 (Ewing's Sarcoma) [39] = assay: as above
Procedure, shortened: as §1

[40] = tested on: YAPC (Pancreatic Carcinoma); assay: as above
Procedure, shortened: as §1

KS-1 (Glioblastoma) [41] = assay: as above
Procedure, shortened: as §1

[42] = tested on: LS-123 (Colorectal Carcinoma); assay: as above
Procedure, shortened: as §1

[43] = tested on: NCI-H524 (Small Cell Lung Carcinoma); assay: as above
Procedure, shortened: as §1

[44] = tested on: SAS (Oral Cavity Carcinoma); assay: as above
Procedure, shortened: as §1

[45] = tested on: OVCAR-5 (Ovarian Carcinoma); assay: as above
Procedure, shortened: as §1

[46] = tested on: SNU-16 (Gastric Carcinoma); assay: as above
Procedure, shortened: as §1
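Throughout, for Bliss excess, mean over the matrix: after 72 h of two-drug dosing.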

Which results are given for C[C@@H](Nc1cc(F)cc(F)c1)c1cc(C(=O)N(C)C)cc2c(=O)cc(N3CCOCC3)oc12 [AZD8186] + CC(=O)c1c(C)c2cnc(Nc3ccc(N4CCNCC4)cn3)nc2n(C2CCCC2)c1=O [Palbociclib] (first compound max 10 µM, 7x7, partner max 10 µM)?
Bliss excess [1]: 0.0531; Bliss excess [2]: 0.111; Bliss excess [3]: -0.0144; Bliss excess [4]: 0.0239; Bliss excess (MPP-89 (Mesothelioma) [5]): -0.0317; Bliss excess [6]: 0.0853; Bliss excess [7]: 0.0428; Bliss excess (CAL-72 (Osteosarcoma) [8]): 0.0075; Bliss excess [9]: -0.0165; Bliss excess [10]: 0.0373; Bliss excess [11]: -0.0114; Bliss excess [12]: -0.0036; Bliss excess (LOXIMVI (Melanoma) [13]): 0.0909; Bliss excess (GAMG (Glioblastoma) [14]): -0.0098; Bliss excess (A673 (Ewing's Sarcoma) [15]): 0.0743; Bliss excess (EW-11 (Ewing's Sarcoma) [16]): -0.0053; Bliss excess [17]: -0.0101; Bliss excess (KS-1 (Glioblastoma) [18]): 0.0069; Bliss excess [19]: 0.0701; Bliss excess [20]: -0.0531; Bliss excess [21]: -0.0006; Bliss excess [22]: 0.0014; Bliss excess [23]: 0.0891; combination Emax [24]: 0.585; combination Emax [25]: 0.478; combination Emax [26]: 0.967; combination Emax [27]: 0.534; combination Emax (MPP-89 (Mesothelioma) [28]): 0.317; combination Emax [29]: 0.413; combination Emax [30]: 0.479; combination Emax (CAL-72 (Osteosarcoma) [31]): 0.398; combination Emax [32]: 0.62; combination Emax [33]: 0.391; combination Emax [34]: 0.552; combination Emax [35]: 0.11; combination Emax (LOXIMVI (Melanoma) [36]): 0.623; combination Emax (GAMG (Glioblastoma) [37]): 0.723; combination Emax (A673 (Ewing's Sarcoma) [38]): 0.479; combination Emax (EW-11 (Ewing's Sarcoma) [39]): 0.428; combination Emax [40]: 0.349; combination Emax (KS-1 (Glioblastoma) [41]): 0.428; combination Emax [42]: 0.478; combination Emax [43]: 0.571; combination Emax [44]: 0.609; combination Emax [45]: 0.55; combination Emax [46]: 0.639

With CN(CCO)CC[C@H](CSc1ccccc1)Nc1ccc(S(=O)(=O)NC(=O)c2ccc(N3CCC([C@@H](O)c4ccccc4-c4ccc(Cl)cc4)CC3)cc2)cc1S(=O)(=O)C(F)(F)F [AZD4320] + Nc1ccn([C@@H]2O[C@H](CO)[C@@H](O)C2(F)F)c(=O)n1 [Gemcitabine] (first compound max 1 µM, 7x7, partner max 0.3 µM) as the molecule, how does the Bliss excess [1] read?
Its Bliss excess is -0.0401.

What about the Bliss excess [2] of the same molecule?
Its Bliss excess is -0.0125.

What about the Bliss excess [3] of the same molecule?
Its Bliss excess is -0.0505.

What about the Bliss excess [4] of the same molecule?
Its Bliss excess is -0.0139.

And the Bliss excess (MPP-89 (Mesothelioma) [5])?
The Bliss excess was 0.0268.

And the Bliss excess [6]?
Its Bliss excess is -0.0085.

What about the Bliss excess [7] of the same molecule?
Its Bliss excess is -0.0245.

And the Bliss excess (CAL-72 (Osteosarcoma) [8])?
The Bliss excess was 0.129.

And the Bliss excess [9]?
Its Bliss excess is -0.0285.

And the Bliss excess [10]?
Its Bliss excess is -0.0558.

And the Bliss excess [11]?
The Bliss excess was 0.0278.

And the Bliss excess [12]?
The Bliss excess was 0.0074.

What about the Bliss excess (LOXIMVI (Melanoma) [13]) of the same molecule?
The Bliss excess was 0.021.

And the Bliss excess (GAMG (Glioblastoma) [14])?
The Bliss excess was 0.103.

And the Bliss excess (A673 (Ewing's Sarcoma) [15])?
Its Bliss excess is 0.0335.

And the Bliss excess (EW-11 (Ewing's Sarcoma) [16])?
Its Bliss excess is 0.0215.

And the Bliss excess [17]?
The Bliss excess was 0.011.

What about the Bliss excess (KS-1 (Glioblastoma) [18]) of the same molecule?
Its Bliss excess is -0.0337.

And the Bliss excess [20]?
Its Bliss excess is -0.0216.

What about the Bliss excess [21] of the same molecule?
The Bliss excess was 0.0374.

What about the Bliss excess [22] of the same molecule?
The Bliss excess was -0.0486.

What about the Bliss excess [23] of the same molecule?
The Bliss excess was 0.0538.

And the “combination Emax” value [24]?
Its value is 0.51.

And the “combination Emax” value [25]?
The value was 0.608.

And the “combination Emax” value [26]?
The value was 0.995.

What about the “combination Emax” value [27] of the same molecule?
The value was 0.408.

And the “combination Emax” value (MPP-89 (Mesothelioma) [28])?
The value was 0.78.

What about the “combination Emax” value [29] of the same molecule?
Its value is 0.293.

And the “combination Emax” value [30]?
The value was 0.476.

What about the “combination Emax” value (CAL-72 (Osteosarcoma) [31]) of the same molecule?
The value was 0.854.

And the “combination Emax” value [32]?
The value was 1.

And the “combination Emax” value [33]?
Its value is 0.367.

What about the “combination Emax” value [34] of the same molecule?
The value was 0.998.

What about the “combination Emax” value [35] of the same molecule?
Its value is 0.32.

What about the “combination Emax” value (LOXIMVI (Melanoma) [36]) of the same molecule?
The value was 0.925.

And the “combination Emax” value (GAMG (Glioblastoma) [37])?
Its value is 0.889.

What about the “combination Emax” value (A673 (Ewing's Sarcoma) [38]) of the same molecule?
Its value is 0.995.

What about the “combination Emax” value (EW-11 (Ewing's Sarcoma) [39]) of the same molecule?
Its value is 0.92.

And the “combination Emax” value [40]?
The value was 0.535.

What about the “combination Emax” value (KS-1 (Glioblastoma) [41]) of the same molecule?
The value was 0.304.

What about the “combination Emax” value [43] of the same molecule?
Its value is 0.906.

What about the “combination Emax” value [44] of the same molecule?
Its value is 0.983.

What about the “combination Emax” value [45] of the same molecule?
The value was 0.633.

And the “combination Emax” value [46]?
Its value is 0.934.
